Results taken from patent publication US6039950A, “Pharmaceutical grade saw palmetto” (priority 1997, dated 2000).
Like-named read-outs stand apart in the source and are kept apart here.

Columns and labels:
5α-reductase type 2 = conditions: cited from earlier work
Type 1 5α-reductase [1] = conditions: Table 2, cited from earlier work; for IC50: read-out: IC50 for DHT, Type 1 5α-reductase
5α-reductase type 1 = conditions: Table 1; read-out: IC50 for DHT inhibition, epithelial cells (type 1); cited from earlier work
5α-reductase [2] = conditions: cited from earlier work
5-lipoxygenase = target: T1, 5-lipoxygenase (Rattus norvegicus, UniProt P12527); test: biochemical; conditions: for 5-Lipo activity: screened at 3×10^-5 (30 μM)
T1 sequence (P12527 1-673): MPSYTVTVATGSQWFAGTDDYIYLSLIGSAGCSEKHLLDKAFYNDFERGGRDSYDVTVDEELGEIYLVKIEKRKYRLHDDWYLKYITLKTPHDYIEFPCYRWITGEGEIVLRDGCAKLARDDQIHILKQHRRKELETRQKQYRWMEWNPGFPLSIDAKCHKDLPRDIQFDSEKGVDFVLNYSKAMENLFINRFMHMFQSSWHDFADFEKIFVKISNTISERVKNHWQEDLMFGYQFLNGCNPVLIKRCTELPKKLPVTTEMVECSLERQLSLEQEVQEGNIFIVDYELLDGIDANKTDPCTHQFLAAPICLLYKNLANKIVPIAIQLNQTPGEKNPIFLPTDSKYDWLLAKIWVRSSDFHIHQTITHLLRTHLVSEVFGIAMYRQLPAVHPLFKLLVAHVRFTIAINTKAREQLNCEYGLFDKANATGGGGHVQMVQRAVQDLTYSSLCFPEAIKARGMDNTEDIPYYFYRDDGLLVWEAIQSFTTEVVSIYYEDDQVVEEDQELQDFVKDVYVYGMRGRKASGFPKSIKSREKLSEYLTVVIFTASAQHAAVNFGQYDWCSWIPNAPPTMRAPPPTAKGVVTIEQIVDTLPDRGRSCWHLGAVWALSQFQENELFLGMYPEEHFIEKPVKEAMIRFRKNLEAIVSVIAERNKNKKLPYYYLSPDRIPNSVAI
Procedure: The procedure was as follows. 5-lipoxygenase assays were run using a crude enzyme preparation from rat basophilic leukemia cells (RBL-1). Test compounds were pre-incubated with the enzyme for 5 minutes at room temperature and the reaction was initiated by addition of substrate (arachidonic acid). Following an 8 minute incubation at room temperature, the reaction was terminated by addition of citric acid, and levels of 5-HETE were determined by 5-HETE radioimmunoassay (RIA).
Compounds and fractions were screened at an initial concentration of 3×10^-5.

Cyclooxygenase-2 = target: T2, Cyclooxygenase-2 (Ovis aries, UniProt P79208); test: biochemical; format: biochemical, sheep
T2 construct: Cyclooxygenase-2 (from sheep placenta); from tissue; host or cells: sheep placenta; assay by Panlabs
T2 sequence (P79208 17-603): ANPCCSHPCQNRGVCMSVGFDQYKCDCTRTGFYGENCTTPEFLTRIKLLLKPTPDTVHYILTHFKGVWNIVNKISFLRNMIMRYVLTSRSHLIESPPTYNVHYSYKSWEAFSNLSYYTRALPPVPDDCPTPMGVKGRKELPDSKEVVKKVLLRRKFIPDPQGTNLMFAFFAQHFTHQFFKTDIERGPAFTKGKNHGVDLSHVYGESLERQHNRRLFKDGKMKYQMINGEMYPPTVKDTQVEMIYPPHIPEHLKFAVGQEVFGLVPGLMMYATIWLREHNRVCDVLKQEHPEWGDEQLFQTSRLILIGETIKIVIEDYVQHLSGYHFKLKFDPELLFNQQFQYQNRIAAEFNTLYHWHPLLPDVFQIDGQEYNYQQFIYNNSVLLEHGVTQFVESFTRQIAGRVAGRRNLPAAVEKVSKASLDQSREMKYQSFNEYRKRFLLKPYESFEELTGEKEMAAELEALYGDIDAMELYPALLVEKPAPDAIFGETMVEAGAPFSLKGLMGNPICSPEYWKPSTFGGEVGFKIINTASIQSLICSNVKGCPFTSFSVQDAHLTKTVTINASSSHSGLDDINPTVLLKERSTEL
Procedure: The reaction is initiated by addition of arachidonic acid (100 mM) and terminated after 20 minutes incubation at 37° C. by addition of TCA.

Cyclooxygenase-1 = target: T3, Cyclooxygenase-1 (Ovis aries, UniProt P05979); test: biochemical; format: biochemical, ram; conditions: for Cox1 activity: screened at 3×10^-4 M
T3 construct: Cyclooxygenase-1 (from ram seminal vesicles); from tissue; host or cells: ram seminal vesicles; assay by Panlabs
T3 sequence (P05979 25-600): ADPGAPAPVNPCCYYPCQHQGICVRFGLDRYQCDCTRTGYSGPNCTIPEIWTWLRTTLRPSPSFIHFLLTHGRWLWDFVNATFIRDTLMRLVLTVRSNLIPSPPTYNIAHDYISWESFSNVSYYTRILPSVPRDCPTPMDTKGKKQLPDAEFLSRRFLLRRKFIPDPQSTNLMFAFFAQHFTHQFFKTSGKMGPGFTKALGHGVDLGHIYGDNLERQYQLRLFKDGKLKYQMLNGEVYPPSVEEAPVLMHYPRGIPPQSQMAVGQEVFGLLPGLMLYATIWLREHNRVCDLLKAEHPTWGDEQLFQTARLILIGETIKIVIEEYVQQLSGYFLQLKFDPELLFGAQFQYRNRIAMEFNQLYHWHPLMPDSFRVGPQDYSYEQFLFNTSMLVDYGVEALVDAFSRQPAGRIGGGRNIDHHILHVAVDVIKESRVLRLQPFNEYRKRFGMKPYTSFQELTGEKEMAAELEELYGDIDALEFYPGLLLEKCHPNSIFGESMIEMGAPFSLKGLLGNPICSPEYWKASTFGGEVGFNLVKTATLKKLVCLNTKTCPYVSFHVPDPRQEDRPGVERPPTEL
Procedure: The reaction was initiated by addition of arachidonic acid (100 mM) and terminated after 20 minutes incubation at 37° C. by addition of trichloroacetic acid (TCA).

5α-reductase [3] = conditions: rat, in vivo; cited from earlier work
Type 1 5α-reductase [4] = conditions: cited from earlier work
Type 2 5α-reductase = conditions: cited from earlier work
5α-reductase [5] = conditions: in vivo; cited from earlier work
[6] = cited from earlier work; for time to degradation in oil preparations: exposed to light, "in as little as"
[7] = Table 1, read-out: IC50 for DHT inhibition, stroma (type 2)
[8] = fibroblasts, read-out: IC50, inhibition of DHT formation in fibroblasts
[9] = Table 8, read-out: 5 Lipoxygenase IC50 (Table 8)
[10] = Table 8, read-out: Cyclooxygenase-2 IC50 (Table 8)
[11] = Table 8, read-out: Cyclooxygenase-1 IC50 (Table 8)

What does the source list for `CCN(CC)C(=O)[C@H]1CC[C@H]2[C@@H]3CC[C@H]4N(C)C(=O)CC[C@]4(C)[C@H]3CC[C@]12C` [4-MA]?
IC50 (5α-reductase type 2; [7]): 50 nM; IC50 (5α-reductase type 2; [8]): 50 nM; Inhibition type (Type 1 5α-reductase [1]): Competitive; IC50 (Type 1 5α-reductase [1]): 10 nM; IC50 (5α-reductase type 1): 20 nM

Which results are given for `CCCCCCCCCCCC(=O)OCC` [Ethyl laurate]?
5α-reductase inhibitory activity (5α-reductase [2]): markedly less effective; IC50 (5-lipoxygenase; [9]): > 30000 nM; 5-Lipo activity (5-lipoxygenase): Negative; Cox2 activity (Cyclooxygenase-2): Negative; IC50 (Cyclooxygenase-2; [10]): > 300000 nM; IC50 (Cyclooxygenase-1; [11]): > 300000 nM; Cox1 activity (Cyclooxygenase-1): Negative

For `CC(C)(C)NC(=O)[C@H]1CC[C@H]2[C@@H]3CC[C@H]4NC(=O)C=C[C@]4(C)[C@H]3CC[C@]12C` [Finasteride], which “inhibition of 5α-reductase in castrated rats” value (5α-reductase [3]) is on record?
The value was “inhibits 5α-reductase”.

What about the type of inhibition (Type 1 5α-reductase [4]) of the same molecule?
The type of inhibition was “competitive”.

And the IC50 (Type 1 5α-reductase [4]; read-out: inhibition, IC50)?
The IC50 was 400 nM.

What about the Ki (Type 1 5α-reductase [4]; read-out: inhibition, Ki) of the same molecule?
Its Ki is 108 nM.

What about the IC50 (5α-reductase type 2; [7]) of the same molecule?
Its IC50 is 30 nM.

What about the IC50 (5α-reductase type 2; [8]) of the same molecule?
The IC50 was 30 nM.

And the type of inhibition (Type 2 5α-reductase)?
The type of inhibition was “(non)competitive”.

What about the IC50 (Type 2 5α-reductase; read-out: inhibition, IC50) of the same molecule?
The IC50 was 10.7 nM.

What about the Ki (Type 2 5α-reductase; read-out: inhibition, Ki) of the same molecule?
The Ki was 7.3 nM.

What about the Inhibition type (Type 1 5α-reductase [1]) of the same molecule?
Its Inhibition type is “Competitive”.

And the IC50 (Type 1 5α-reductase [1])?
Its IC50 is 500 nM.

And the “decrease in serum DHT levels” value (5α-reductase [5])?
The value was “decrease in serum DHT levels”.

And the IC50 (5α-reductase type 1)?
The IC50 was 400 nM.

Which 5α-reductase inhibitory activity (5α-reductase [2]) does the source give for `CCCCCCCCCCCC(=O)O` [Lauric Acid] here?
Its 5α-reductase inhibitory activity is “particularly potent inhibitors”.

And the IC50 (5-lipoxygenase; [9])?
Its IC50 is greater than 30000 nM.

What about the 5-Lipo activity (5-lipoxygenase) of the same molecule?
Its 5-Lipo activity is “Negative”.

What about the Cox2 activity (Cyclooxygenase-2) of the same molecule?
The Cox2 activity was “Negative”.

What about the IC50 (Cyclooxygenase-2; [10]) of the same molecule?
Its IC50 is greater than 300000 nM.

And the IC50 (Cyclooxygenase-1; [11])?
Its IC50 is greater than 300000 nM.

What about the Cox1 activity (Cyclooxygenase-1) of the same molecule?
The Cox1 activity was “Negative”.

What does the source list for `CCCCC/C=C\C/C=C\CCCCCCCC(=O)O` [Linoleic Acid]?
5α-reductase inhibitory activity (5α-reductase [2]): particularly potent inhibitors; IC50 (5-lipoxygenase): > 30000 nM; 5-Lipo activity (5-lipoxygenase): Negative; Cox2 activity (Cyclooxygenase-2): Negative; IC50 (Cyclooxygenase-2): > 300000 nM; IC50 (Cyclooxygenase-1): > 300000 nM; Cox1 activity (Cyclooxygenase-1): Negative

Which 5α-reductase inhibitory activity (5α-reductase [2]) does the source give for `CC/C=C\C/C=C\C/C=C\CCCCCCCC(=O)O` [Linolenic Acid] here?
Its 5α-reductase inhibitory activity is “particularly potent inhibitors”.

What about the IC50 (5-lipoxygenase) of the same molecule?
Its IC50 is 12000 nM.

And the Cox2 activity (Cyclooxygenase-2)?
The Cox2 activity was “Negative”.

What about the IC50 (Cyclooxygenase-2; [10]) of the same molecule?
The IC50 was greater than 300000 nM.

For `CCC(C)C(=O)[C@]12C(=O)[C@](CC=C(C)C)(C[C@H](CC=C(C)C)[C@@]1(C)CCC=C(C)C)C(=O)C(CC=C(C)C)=C2O` (stereo partly shown) [adhyperforin], which “time to degradation in oil preparations” value [6] is on record?
Its value is 14 days.

For `CC(C)=CCCC1(C)C(CC=C(C)C)CC2(CC=C(C)C)C(=O)C(CC=C(C)C)=C(O)C1(C(=O)C(C)C)C2=O` (stereo not shown) [hyperforin], which “time to degradation in oil preparations” value [6] is on record?
The value was 14 days.

With `Cc1cc(O)c2c(=O)c3c(O)cc(O)c4c5c(O)cc(O)c6c(=O)c7c(O)cc(C)c8c1c2c(c34)c(c78)c65` [hypericin] as the molecule, how does the “hypericin content on storage” value ([6]; 60-140 °C, more than six weeks, powdered extract, tablet and juice) read?
Its value is “drop significantly”.
